Measurements published in patent US9796733B2, “Imidazo-pyrazine derivatives useful as soluble guanylate cyclase activators” (Merck Sharp & Dohme Corp., priority 2014, dated 2017).

Biological target: T1, sGC α1/β1 heterodimer (Homo sapiens, UniProt Q02108+Q02153)
T1 construct: expressed in transfected cells; host or cells: CHO-K1 (clone #7, CHO-K1/sGC)
T1 sequence (Q02108 1-690): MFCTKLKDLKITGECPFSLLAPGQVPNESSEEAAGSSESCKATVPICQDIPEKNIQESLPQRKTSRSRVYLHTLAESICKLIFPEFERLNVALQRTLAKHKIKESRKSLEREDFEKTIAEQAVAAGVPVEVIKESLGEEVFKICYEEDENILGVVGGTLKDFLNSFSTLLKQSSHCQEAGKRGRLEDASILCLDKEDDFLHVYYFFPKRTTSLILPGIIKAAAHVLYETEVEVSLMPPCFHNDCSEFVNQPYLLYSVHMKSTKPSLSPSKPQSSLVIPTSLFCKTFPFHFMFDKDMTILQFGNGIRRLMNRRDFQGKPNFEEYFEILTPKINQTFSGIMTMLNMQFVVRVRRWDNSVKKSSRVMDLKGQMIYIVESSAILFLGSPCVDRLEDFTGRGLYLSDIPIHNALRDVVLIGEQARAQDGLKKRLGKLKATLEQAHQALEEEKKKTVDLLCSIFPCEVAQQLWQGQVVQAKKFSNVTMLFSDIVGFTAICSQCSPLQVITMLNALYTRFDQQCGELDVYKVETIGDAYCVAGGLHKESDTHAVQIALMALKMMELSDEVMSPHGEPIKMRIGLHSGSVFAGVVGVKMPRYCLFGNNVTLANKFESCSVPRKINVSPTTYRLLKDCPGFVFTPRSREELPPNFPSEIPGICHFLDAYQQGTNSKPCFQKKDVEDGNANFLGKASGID
T1 sequence (Q02153 1-619): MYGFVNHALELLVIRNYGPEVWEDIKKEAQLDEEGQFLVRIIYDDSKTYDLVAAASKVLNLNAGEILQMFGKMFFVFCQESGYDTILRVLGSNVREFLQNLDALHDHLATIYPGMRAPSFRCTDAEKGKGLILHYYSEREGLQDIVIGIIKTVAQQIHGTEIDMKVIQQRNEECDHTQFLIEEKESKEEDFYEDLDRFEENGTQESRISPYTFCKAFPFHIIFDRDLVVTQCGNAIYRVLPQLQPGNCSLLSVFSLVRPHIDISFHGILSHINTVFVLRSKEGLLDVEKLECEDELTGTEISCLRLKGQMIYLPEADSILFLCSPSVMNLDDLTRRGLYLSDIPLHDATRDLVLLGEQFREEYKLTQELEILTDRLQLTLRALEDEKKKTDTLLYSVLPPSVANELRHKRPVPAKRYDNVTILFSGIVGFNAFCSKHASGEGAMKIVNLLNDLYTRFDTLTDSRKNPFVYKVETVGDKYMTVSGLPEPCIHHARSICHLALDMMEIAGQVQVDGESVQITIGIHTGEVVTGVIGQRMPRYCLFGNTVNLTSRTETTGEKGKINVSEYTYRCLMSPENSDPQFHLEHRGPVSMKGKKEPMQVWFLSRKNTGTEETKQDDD
Assay: Cell-based sGC functional assay (CASA assay): cGMP generation in CHO-K1/sGC cells, HTRF detection
Conditions: for Emax: CHO-K1, percent activation relative to standard Compound A in CHO-K1/sGC cells, read-out: % Act.; for EC50: inflection point (IP) of cGMP generation in CHO-K1/sGC cells, 4P fit, activity expressed as percentage of Compound A
How it was run: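 cGMP was quantified by HTRF after 1 hr, 37° C exposure of thawed CHO-K1 cells expressing sGC α1/β1 to compound, with or without 1 μM DETA-NO. IBMX (0.5 mM) blocked cGMP breakdown, and DMSO was 2.5% final. Percent of standard Compound A's maximal cGMP was fitted (4P) for inflection point.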

SMILES: CC1(c2ccc(Cl)cc2)C(=O)Nc2nc(-c3cn4cc(C(F)(F)F)nc4c(Cc4ccccc4F)n3)nc(N)c21 (centres unmarked) [Example 151A, 4-amino-5-(4-chlorophenyl)-2-(8-(2-fluorobenzyl)-2-(trifluoromethyl)imidazo[1,2-a]pyrazin-6-yl)-5-methyl-5H-pyrrolo[2,3-d]pyrimidin-6(7H)-one]
- Emax: 106%
- EC50: 19 nM

SMILES: Cc1ccc(C2(C)C(=O)Nc3nc(-c4cn5ccnc5c(CCC(F)(F)C(F)(F)F)n4)nc(N)c32)nn1 (centres unmarked) [Example 252B, 4-amino-5-methyl-5-(6-methylpyridazin-3-yl)-2-(8-(3,3,4,4,4-pentafluorobutyl)imidazo [1,2-a]pyrazin-6-yl)-5H-pyrrolo[2,3-d]pyrimidin-6(7H)-one]
- Emax: 121%
- EC50: 175 nM

SMILES: CC1(c2ccccn2)C(=O)Nc2nc(-c3cn4ccnc4c(CCC(F)(F)C(F)(F)F)n3)nc(N)c21 (centres unmarked) [Example 226A, 4-amino-5-methyl-2-(8-(3,3,4,4,4-pentafluorobutyl)imidazo [1,2-a]pyrazin-6-yl)-5-(pyridin-2-yl)-5H-pyrrolo[2,3-d]pyrimidin-6(7H)-one]
- Emax: 124%
- EC50: 287 nM

SMILES: Nc1nc(-c2cn3ccnc3c(CCCC(F)(F)F)n2)nc2c1C(c1ncc(Cl)cc1F)(C1CC1)C(=O)N2 (single isomer, unassigned) [Example 371A, 4-amino-5-(5-chloro-3-fluoropyridin-2-yl)-5-cyclopropyl-2-(8-(4,4,4-trifluorobutyl)imidazo[1,2-a]pyrazin-6-yl)-5H-pyrrolo[2,3-d]pyrimidin-6(7H)-one]
- Emax: 82%
- EC50: 194 nM

SMILES: CC1(c2ccc(F)cc2)C(=O)Nc2nc(-c3cn4ccnc4c(CCC4CCCCC4)n3)nc(N)c21 (centres unmarked) [Example 12A, 4-amino-2-(8-(2-cyclohexylethyl)imidazo[1,2-a]pyrazin-6-yl)-5-(4-fluorophenyl)-5-methyl-5H-pyrrolo[2,3-d]pyrimidin-6(7H)-one]
- Emax: 142%
- EC50: 53 nM

SMILES: COc1ccc(C2(C)C(=O)Nc3nc(-c4cn5ccnc5c(CCC(F)(F)C(F)(F)F)n4)nc(N)c32)cn1 (centres unmarked) [Example 236B, 4-amino-5-(6-methoxypyridin-3-yl)-5-methyl-2-(8-(3,3,4,4,4-pentafluorobutyl)imidazo [1,2-a]pyrazin-6-yl)-5H-pyrrolo[2,3-d]pyrimidin-6(7H)-one]
- Emax: 91%
- EC50: 35 nM

SMILES: COc1ccc(C2(C)C(=O)Nc3nc(-c4cn5ccnc5c(CCC(F)(F)C(F)(F)F)n4)nc(N)c32)cc1 (centres unmarked) [Example 229B, 4-amino-5-(4-methoxyphenyl)-5-methyl-2-(8-(3,3,4,4,4-pentafluorobutyl)imidazo [1,2-a]pyrazin-6-yl)-5H-pyrrolo[2,3-d]pyrimidin-6(7H)-one]
- Emax: 122%
- EC50: 26 nM

SMILES: CC1(C)C(=O)Nc2nc(-c3cn4ccnc4c(CCC(F)(F)C(F)(F)F)n3)nc(N)c21 [Example 87, 4-amino-5,5-dimethyl-2-(8-(3,3,4,4,4-pentafluorobutyl)imidazo [1,2-a]pyrazin-6-yl)-5H-pyrrolo[2,3-d]pyrimidin-6(7H)-one]
- Emax: 54%
- EC50: 399 nM

SMILES: CCn1cc(C2(C)C(=O)Nc3nc(-c4cn5ccnc5c(Cc5ccc(F)cc5)n4)nc(N)c32)nn1 (centres unmarked) [Example 64A, 4-amino-5-(1-ethyl-1H-1,2,3-triazol-4-yl)-2-(8-(4-fluorobenzyl)imidazo[1,2-a]pyrazin-6-yl)-5-methyl-5H-pyrrolo[2,3-d]pyrimidin-6(7H)-one]
- Emax: 115%
- EC50: 196 nM

SMILES: Nc1nc(-c2cn3ccnc3c(CCC(F)(F)C(F)(F)F)n2)nc2c1C(c1ccccn1)(C1CC1)C(=O)N2 (centres unmarked) [Example 382B, 4-Amino-5-cyclopropyl-2-(8-(3,3,4,4,4-pentafluorobutyl)imidazo[1,2-a]pyrazin-6-yl)-5-(pyridin-2-yl)-5H-pyrrolo[2,3-d]pyrimidin-6(7H)-one]
- Emax: 149%
- EC50: 453 nM

SMILES: Cc1ccc(C2(C)C(=O)Nc3nc(-c4cn5ccnc5c(CCC(F)(F)C(F)(F)F)n4)nc(N)c32)cc1 (centres unmarked) [Example 230B, 4-amino-5-methyl-2-(8-(3,3,4,4,4-pentafluorobutyl)imidazo [1,2-a]pyrazin-6-yl)-5-(p-tolyl)-5H-pyrrolo[2,3-d]pyrimidin-6(7H)-one]
- Emax: 117%
- EC50: 32 nM

SMILES: CC1(c2cc(F)cc(F)c2)C(=O)Nc2nc(-c3cn4ccnc4c(CCC(F)(F)F)n3)nc(N)c21 (centres unmarked) [Example 195B, 4-amino-5-(3,5-difluorophenyl)-5-methyl-2-(8-(3,3,3-trifluoropropyl)imidazo[1,2-a]pyrazin-6-yl)-5H-pyrrolo[2,3-d]pyrimidin-6(7H)-one]
- Emax: 114%
- EC50: 312 nM

SMILES: Cc1nc(C2(C3CC3)C(=O)Nc3nc(-c4cn5ccnc5c(CCC(F)(F)C(F)(F)F)n4)nc(N)c32)ccc1F (single isomer, unassigned) [Example 363B, 4-amino-5-cyclopropyl-5-(5-fluoro-6-methylpyridin-2-yl)-2-(8-(3,3,4,4,4-pentafluorobutyl)imidazo[1,2-a]pyrazin-6-yl)-5H-pyrrolo[2,3-d]pyrimidin-6(7H)-one]
- Emax: 186%
- EC50: 244 nM

SMILES: Nc1nc(-c2cn3cc(C(F)(F)F)nc3c(Cc3ccccc3F)n2)nc2c1C(C(=O)NC1CC1)(C1CC1)C(=O)N2 (centres unmarked) [Example 45A, 4-amino-N,5-dicyclopropyl-2-(8-(2-fluorobenzyl)-2-(trifluoromethyl)imidazo[1,2-a]pyrazin-6-yl)-6-oxo-6,7-dihydro-5H-pyrrolo[2,3-d]pyrimidine-5-carboxamide]
- Emax: 86%
- EC50: 668 nM

SMILES: COCCNc1nc(-c2cn3ccnc3c(CCC(F)(F)C(F)(F)F)n2)nc2c1C(C)(C)C(=O)N2 [Example 313, 4-((2-Methoxyethyl)amino)-5,5-dimethyl-2-(8-(3,3,4,4,4-pentafluorobutyl)imidazo[1,2-a]pyrazin-6-yl)-5H-pyrrolo[2,3-d]pyrimidin-6(7H)-one]
- Emax: 93%
- EC50: 25 nM

SMILES: CC1(c2ccc(OC(F)(F)F)cc2)C(=O)Nc2nc(-c3cn4ccnc4c(CCC(F)(F)F)n3)nc(N)c21 (centres unmarked) [Example 196B, 4-amino-5-methyl-5-(4-(trifluoromethoxy)phenyl)-2-(8-(3,3,3-trifluoropropyl)imidazo[1,2-a]pyrazin-6-yl)-5H-pyrrolo[2,3-d]pyrimidin-6(7H)-one]
- Emax: 106%
- EC50: 267 nM

SMILES: CC(C)n1cc(C2(C)C(=O)Nc3nc(-c4cn5ccnc5c(Cc5ccc(F)cc5)n4)nc(N)c32)nn1 (centres unmarked) [Example 63A, 4-Amino-2-(8-(4-fluorobenzyl)imidazo[1,2-a]pyrazin-6-yl)-5-(1-isopropyl-1H-1,2,3-triazol-4-yl)-5-methyl-5H-pyrrolo[2,3-d]pyrimidin-6(7H)-one]
- Emax: 99%
- EC50: 109 nM

SMILES: CC1(C(=O)NC2CC2)C(=O)Nc2nc(-c3cn4cc(C(F)(F)F)nc4c(Cc4cccc(F)c4F)n3)nc(N)c21 (centres unmarked) [Example 43A, 4-amino-N-cyclopropyl-2-(8-(2,3-difluorobenzyl)-2-(trifluoromethyl)imidazo[1,2-a]pyrazin-6-yl)-5-methyl-6-oxo-6,7-dihydro-5H-pyrrolo[2,3-d]pyrimidine-5-carboxamide]
- Emax: 86%
- EC50: 182 nM

SMILES: CC1(c2ccc(F)cc2)C(=O)Nc2nc(-c3cn4ccnc4c(Cc4cccc(Cl)c4)n3)nc(N)c21 (centres unmarked) [Example 94A, 4-amino-2-(8-(3-chlorobenzyl)imidazo[1,2-a]pyrazin-6-yl)-5-(4-fluorophenyl)-5-methyl-5H-pyrrolo[2,3-d]pyrimidin-6(7H)-one]
- Emax: 108%
- EC50: 5 nM
